According to patent US20220195461A1, “METHODS AND COMPOSITIONS FOR TRANSGENE EXPRESSION” (priority 2019, published 2022):

Tested on: CF (HBE and HTE, dF508/dF508, Passage 0) cells
Assay: LDH activity (toxicity) of AV.TL65 plus proteasome inhibitor versus AAV alone
Type: cell-based, human
Conditions: for LDH (toxicity) activity compared to AAV without a proteasome inhibitor: augmenter + AV.TL65-gLuc-mCherry, 4 days after infection (FIG. 1B); for toxicity of the enhancement: augmenter combined with AV.TL65Luciferase-mCherry, ALI HBE cultures; for LDH relative to baseline: passage 0 (P0) cells
Text: FIGS. 1A and 1B are a series of graphs showing the ratio of luciferase activity in cells treated with AV.TL65+proteasome inhibitor (PI) versus AAV alone (FIG. 1A) and the ratio of LDH activity in cells treated with AV.TL65+PI versus AAV alone (FIG. 1B). […] Relative Luminescence Units in CF HBE treated with AV.TL65 with PI exceeded 200-fold of AV.TL65 without PI. Toxicity of AV.TL65 with PI as measured by LDH activity was mostly below 150% of AV.TL65 without PI.
We have generated a novel AAV vector featuring a capsid that is highly efficient at transducing human airway epithelium in the apical membrane. Specifically, we have used AV.TL65-SP183-CFTRΔR to deliver an R-domain-partially-deleted CFTR minigene and AV.TL65Luciferase-mCherry, a dual reporter vector, to express luciferase and fluorescent mCherry protein. The AV.TL65-SP183-CFTRΔR rAAV vector included a polynucleotide comprising: a 5′ AAV ITR comprising the sequence of SEQ ID NO:15, an F5 enhancer comprising the sequence of SEQ ID NO:14 (which may include a 5′ EcoRI site and a 3′ XhoI site, as in SEQ ID NO:1), a tg83 promoter comprising the sequence of SEQ ID NO:2, a 5′ UTR comprising the sequence of SEQ ID NO:3, a hCFTRΔR minigene comprising the sequence of SEQ ID NO:4, a 3′ UTR comprising the sequence of SEQ ID NO:5, a s-pA comprising the sequence of SEQ ID NO:6, and a 3′ AAV ITR comprising the sequence of SEQ ID NO:16. For example, the packaged polynucleotide may include the sequence of SEQ ID NO:17. […] We have shown that combining AV.TL65Luciferase-mCherry with doxorubicin or idarubicin provides non-toxic enhancement of luciferase expression by more than 600-fold of air-liquid interface (ALI) human bronchial epithelial (HBE) cultures from 5 separate CF (homozygous dF508/dF508 CFTR) and non-CF donors compared to AV.TL65Luciferase-mCherry without proteasome inhibitor. In another experiment, doxorubicin and idarubicin+AV.TL65-gLuc-mCherry improved transduction over AAV without a proteasome inhibitor by over 200-fold (FIG. 1A, dashed line). Doxorubicin added to AV.TL65-gLuc-mCherry but not idarubicin had less than 150% LDH (toxicity) activity compared to AAV without a proteasome inhibitor (FIG. 1B; dashed line). Transduction efficiency gains in passage 0 (PO) cells were well above 200-fold better with doxorubicin and idarubicin with LDH <1.5× baseline for doxorubicin and >1.5× baseline for idarubicin.

Row | SMILES | LDH (toxicity) activity compared to AAV without a proteasome inhibitor | toxicity of the enhancement | LDH relative to baseline [× baseline]
1 | CC(=O)[C@]1(O)Cc2c(O)c3c(c(O)c2[C@@H](O[C@H]2C[C@H](N)[C@H](O)[C@H](C)O2)C1)C(=O)c1ccccc1C3=O [idarubicin] | ≥ 150% | non-toxic | > 1.5
2 | COc1cccc2c1C(=O)c1c(O)c3c(c(O)c1C2=O)C[C@@](O)(C(=O)CO)C[C@@H]3O[C@H]1C[C@H](N)[C@H](O)[C@H](C)O1 [doxorubicin] | less than 150% | non-toxic | < 1.5
